Where two headings read alike, the source gives them in different places.
Assays:
[1] = biological target: human recombinant sGC enzyme (Homo sapiens (Human), UniProt Q02108+Q02153); assay: Size Exclusion Chromatography (SEC) competition binding assay using [3H] Ex-77B as the radioligand; conditions: [3H] Ex-77B radioligand, 24 hours at 37° C.
In short: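 Recombinant human sGC binding measured by competition against tritiated Ex-77B radioligand, with non-specific binding defined by 1 μM unlabeled Ex-77B.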

sGC α1/β1 heterodimer = sGC α1/β1 heterodimer (Homo sapiens (Human), UniProt Q02108+Q02153); assay: Cell-based sGC functional assay (cyclic GMP assay for sGC activator: CASA assay); conditions: CHO-K1/sGC cells; for Emax: read-out: % Activation; for EC50: inflection point, 4P fit, read-out: IP
In short: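 CHO-K1 cells stably expressing human sGC α1/β1 were pre-incubated 30 min at 25° C with or without 1 μM DETA-NO, then exposed to compound for 1 hr at 37° C with 0.5 mM IBMX and 2.5% DMSO final. Intracellular cGMP was measured by HTRF, expressed as % of reference sGC-HDA maximum; inflection point and maximum fold induction came from 4-parameter fits.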

[2] = CHO-K1, activity expressed as percentage of compound A (standard)

Ki [1] | Emax (sGC α1/β1 heterodimer; [2]) | EC50 (sGC α1/β1 heterodimer) | SMILES | Emax (sGC α1/β1 heterodimer; activity expressed as percentage of compound A (standard))
0.067 nM | 111% | 14 nM | CC(C)(Cc1csc([C@]2(C)C(=O)Nc3nc(-c4nn(Cc5c(F)ccc(F)c5F)c5ccccc45)nc(N)c32)n1)C(=O)O [Example 224A, (S)-3-(2-{4-amino-5-methyl-6-oxo-2-[1-(2,3,6-trifluorobenzyl)-1H-indazol-3-yl]-6,7-dihydro-5H-pyrrolo[2,3-d]pyrimidin-5-yl}-1,3-thiazol-4-yl)-2,2-dimethyl-propanoic acid] | 
0.105 nM | 84.7% | 106 nM | CC1(c2ccc(CCP(=O)(O)O)cc2)C(=O)Nc2nc(-c3nn(Cc4ccccc4F)c4cc(Cl)ccc34)nc(N)c21 (stereo not drawn) [Example 257A, [2-(4-{4-Amino-2-[6-chloro-1-(2-fluorobenzyl)-1H-indazol-3-yl]-5-methyl-6-oxo-6,7-dihydro-5H-pyrrolo[2,3-d]pyrimidin-5-yl}phenyl)ethyl]phosphonic acid] | 
0.908 nM | 105% | 916 nM | CCCCn1nc(-c2nc(N)c3c(n2)NC(=O)C3(C)c2cn(CCC(=O)O)nn2)c2ccc(Cl)cc21 (stereo not drawn) [Example 36B, 3-{4-[4-amino-2-(1-butyl-6-chloro-1H-indazol-3-yl)-5-methyl-6-oxo-6,7-dihydro-5H-pyrrolo[2,3-d]pyrimidin-5-yl]-1H-1,2,3-triazol-1-yl}propanoic acid] | 
0.395 nM | 83% | 254 nM | CC1(c2nn(CC(=O)O)c(=O)o2)C(=O)Nc2nc(-c3nn(CCC(F)(F)C(F)(F)F)c4cc(Cl)ccc34)nc(N)c21 (stereo not drawn) [Example 98A, [5-{4-Amino-2-[6-chloro-1-(3,3,4,4,4-pentafluorobutyl)-1H-indazol-3-yl]-5-methyl-6-oxo-6,7-dihydro-5H-pyrrolo[2,3-d]pyrimidin-5-yl}-2-oxo-1,3,4-oxadiazol-3(2H)-yl]acetic acid] | 
0.513 nM | 104% | 657 nM | CC(C)(Cc1csc([C@]2(C)C(=O)Nc3nc(-c4nn(CC5CCCCO5)c5cc(F)ccc45)nc(N)c32)n1)C(=O)O (single isomer, unassigned) [Example 133AA] | 
0.081 nM | 121% | 291 nM | CC(C)(Cc1coc(C2(C)C(=O)Nc3nc(-c4nn(CC5CCCC5)c5cc(Cl)ccc45)nc(N)c32)n1)C(=O)O (stereo not drawn) [Example 161A, 3-(2-{4-amino-2-[6-chloro-1-(cyclopentylmethyl)-1H-indazol-3-yl]-5-methyl-6-oxo-6,7-dihydro-5H-pyrrolo[2,3-d]pyrimidin-5-yl}-1,3-oxazol-4-yl)-2,2-dimethyl-propanoic acid] | 
0.042 nM | 97% | 2160 nM | CC[C@H](NC(=O)CCc1ccc([C@]2(C)C(=O)Nc3nc(-c4nn(Cc5ccccc5F)c5ncccc45)nc(N)c32)cc1)C(=O)O [Example 105B, (5S,2S)-2-(3-(4-{4-amino-2-[1-(2-fluorobenzyl)-1H-pyrazolo[3,4-b]pyridin-3-yl]-5-methyl-6-oxo-6,7-dihydro-5H-pyrrolo[2,3-d]pyrimidin-5-yl}phenyl)propanamido)butanoic acid] | 
0.07 nM | 108% | 66 nM | CC(C)(Cc1csc([C@]2(C)C(=O)Nc3nc(-c4nn(Cc5cccc(F)c5F)c5cc(F)ccc45)nc(N)c32)n1)C(=O)O [Example 199A, (S)-3-(2-{4-amino-2-[1-(2,3-difluorobenzyl)-6-fluoro-1H-indazol-3-yl]-5-methyl-6-oxo-6,7-dihydro-5H-pyrrolo[2,3-d]pyrimidin-5-yl}-1,3-thiazol-4-yl)-2,2-dimethyl-propanoic acid] | 
0.075 nM | 104% | 749 nM | C[C@@]1(c2ccc(CCc3nn[nH]n3)cc2)C(=O)Nc2nc(-c3nn(Cc4ccccc4F)c4ncccc34)nc(N)c21 [Example 240B, (S)-4-amino-2-[1-(2-fluoro-benzyl)-1H-pyrazolo[3,4-b]pyridin-3-yl]-5-methyl-5-{4-[2-(2H-tetrazol-5-yl)ethyl]phenyl}-5,7-dihydro-6H-pyrrolo[2,3-d] pyrimidin-6-one] | 
1.12 nM | 102% | 2790 nM | CCCCn1nc(-c2nc(N)c3c(n2)NC(=O)C3(C)c2cn(CC(=O)O)nn2)c2ccc(Cl)cc21 (stereo not drawn) [Example 35B, 2-{4-[4-amino-2-(1-butyl-6-chloro-1H-indazol-3-yl)-5-methyl-6-oxo-6,7-dihydro-5H-pyrrolo[2,3-d]pyrimidin-5-yl]-1H-1,2,3-triazol-1-yl}acetic acid] | 
0.062 nM | 82.1% | 94 nM | CC1(c2nc(-c3ccc(C(=O)O)cc3)co2)C(=O)Nc2nc(-c3nn(Cc4ccccc4F)c4ncccc34)nc(N)c21 (stereo not drawn) [Example 146A, 4-(2-{4-amino-2-[1-(2-fluorobenzyl)-1H-pyrazolo[3,4-b]pyridin-3-yl]-5-methyl-6-oxo-6,7-dihydro-5H-pyrrolo [2,3-d]pyrimidin-5-yl}-1,3-oxazol-4-yl)benzoic acid] | 
0.118 nM | 130% | 655 nM | Cc1oc(C2(C)C(=O)Nc3nc(-c4nn(Cc5ccccc5F)c5cc(Cl)ccc45)nc(N)c32)nc1CC(C)(C)C(=O)O (stereo not drawn) [Example 170B, 3-(2-{4-amino-2-[6-chloro-1-(2 fluorobenzyl)-1H-indazol-3-yl]-5-methyl-6-oxo-6,7-dihydro-5H-pyrrolo[2,3-d]pyrimidin-5-yl}-5-methyl-1,3-oxazol-4-yl)-2,2-dimethylpropanoic acid] | 
0.267 nM | 116% | 320 nM | Cc1ccc(F)c(Cn2nc(-c3nc(N)c4c(n3)NC(=O)[C@@]4(C)c3nc(CC(C)(C)C(=O)O)cs3)c3ccc(Cl)cc32)c1 (single isomer, unassigned) [Example 214A] | 
0.124 nM | 131% | 194 nM | CC(C)(Cc1csc([C@]2(C)C(=O)Nc3nc(-c4nn(CC5CCCCC5)c5ncccc45)nc(N)c32)n1)C(=O)O (single isomer, unassigned) [Example 151A] | 
0.075 nM | 73.4% | 61 nM | CC1(c2nc(-c3ccc(C(=O)O)cc3)cs2)C(=O)Nc2nc(-c3nn(Cc4ccccc4F)c4ncccc34)nc(N)c21 (stereo not drawn) [Example 147A, 4-(2-{4-amino-2-[1-(2-fluorobenzyl)-1H-pyrazolo[3,4-b]pyridin-3-yl]-5-methyl-6-oxo-6,7-dihydro-5H-pyrrolo [2,3-d]pyrimidin-5-yl}-1,3-thiazol-4-yl)benzoic acid] | 
0.026 nM | 111% | 2340 nM | CC(C)(NC(=O)CCc1ccc([C@]2(C)C(=O)Nc3nc(-c4nn(Cc5ccccc5F)c5ncccc45)nc(N)c32)cc1)C(=O)O [Example 101B, (S)-2-(3-(4-{4-amino-2-[1-(2-fluorobenzyl)-1H-pyrazolo[3,4-b]pyridin-3-yl]-5-methyl-6-oxo-6,7-dihydro-5H-pyrrolo[2,3-d]pyrimidin-5-yl}phenyl)propanamido)-2-methylpropanoic acid] | 
0.07 nM | 107% | 93 nM | CC(C)(CCc1coc(C2(C)C(=O)Nc3nc(-c4nn(Cc5ccccc5F)c5cc(Cl)ccc45)nc(N)c32)n1)C(=O)O (stereo not drawn) [Example 167B, 4-(2-{4-amino-2-[6-chloro-1-(2-fluorobenzyl)-1H-indazol-3-yl]-5-methyl-6-oxo-6,7-dihydro-5H-pyrrolo[2,3-d]pyrimidin-5-yl}-1,3-oxazol-4-yl)-2,2-dimethyl-butanoic acid] | 
0.073 nM | 108% | 1480 nM | CC1(c2cccc(C(=O)O)n2)C(=O)Nc2nc(-c3nn(Cc4ccccc4F)c4cc(Cl)ccc34)nc(N)c21 (stereo not drawn) [Example 255A, 6-{4-Amino-2-[6-chloro-1-(2-fluorobenzyl)-1H-indazol-3-yl]-5-methyl-6-oxo-6,7-dihydro-5H-pyrrolo[2,3-d]pyrimidin-5-yl}picolinic acid] | 
0.124 nM | 92% | 238 nM | CC(C)(Cc1coc(C2(C)C(=O)Nc3nc(-c4nn(Cc5c(F)cccc5F)c5cc(Cl)ccc45)nc(N)c32)n1)C(=O)O (stereo not drawn) [Example 182A, 3-(2-{4-amino-2-[6-chloro-1-(2,6-difluorobenzyl)-1H-indazol-3-yl]-5-methyl-6-oxo-6,7-dihydro-5H-pyrrolo[2,3-d]pyrimidin-5-yl}-1,3-oxazol-4-yl)-2,2-dimethyl-propanoic acid] | 
0.151 nM | 139% | 96 nM | CC(C)(Cc1coc(C2(C)C(=O)Nc3nc(-c4nn(Cc5cccc(F)c5)c5cc(Cl)ccc45)nc(N)c32)n1)C(=O)O (stereo not drawn) [Example 175A, 3-(2-{4-amino-2-[6-chloro-1-(3-fluorobenzyl)-1H-indazol-3-yl]-5-methyl-6-oxo-6,7-dihydro-5H-pyrrolo[2,3-d]pyrimidin-5-yl}-1,3-oxazol-4-yl)-2,2-dimethyl-propanoic acid] | 
0.101 nM | 139% | 289 nM | C[C@@]1(c2ccc(CCC(=O)O)cc2)C(=O)Nc2nc(-c3nn(Cc4cccc(F)c4)c4cc(Cl)ccc34)nc(N)c21 [Example 69B, (S)-3-(4-{4-amino-2-[6-chloro-1-(3-fluorobenzyl)-1H-indazol-3-yl]-5-methyl-6-oxo-6,7-dihydro-5H-pyrrolo[2,3-d]pyrimidin-5-yl}phenyl)propanoic acid] | 

SMILES | Ki [1] | Emax (sGC α1/β1 heterodimer; [2]) | EC50 (sGC α1/β1 heterodimer) | Emax (sGC α1/β1 heterodimer; activity expressed as percentage of compound A (standard))
C[C@@]1(c2ccc(CCc3noc(=O)[nH]3)cc2)C(=O)Nc2nc(-c3nn(Cc4ccccc4F)c4cc(Cl)ccc34)nc(N)c21 [Example 256B, (S)-4-Amino-2-[6-chloro-1-(2-fluorobenzyl)-1H-indazol-3-yl]-5-methyl-5-{4-[2-(5-oxo-4,5-dihydro-1,2,4-oxadiazol-3-yl)ethyl]phenyl}-5,7-dihydro-6H-pyrrolo[2,3-d]pyrimidin-6-one] | 0.074 nM |  | 2050 nM | 104%
